Results reported in article PMC11887451, “Leveraging Immunogenic Cell Death to Enhance the Immune Response against Malignant Pleural Mesothelioma Tumors” (Journal of the American Chemical Society, 2025).

Key:
[1] = test system: murine malignant mesothelioma cell line AB12; test: MTT cytotoxicity assay, 72 h, AB12; format: cell-based, mouse; details: exposure time 72 h
Description: (§1) Human malignant mesothelioma cancer cell lines JU77 and LO68 were obtained from Cell Bank Australia (Children's Medical Research Institute, Westmead, Australia). Mouse malignant mesothelioma cancer cell line AB12, human nonmalignant mesothelioma cancer cell line Met5A (mesothelial cells), mouse macrophage cell line J774 and human monocytic cell line THP-1 were obtained from American Type Culture Collection (ATCC) (Rockville, MD, USA). Human malignant mesothelioma cell lines VMC23 (epithelial), Meso82 (sarcomatous), Meso92 (biphasic), were kindly provided by Prof. Walter Berger (Medical University of Vienna). All cells except for J774 were cultured in RPMI and J774 cells were cultured in DMEM. Both types of media were supplemented with 10% FBS and 1% penicillin-streptomycin (10,000 U/mL). Cells were grown in tissue culture flasks (75 cm2 and 25 cm2, SPL Life Sciences Co., Ltd., Korea). All cell lines were grown at 37 °C in a humidified atmosphere of 95% air and 5% CO 2 and passaged when they reached 80–90% confluency. All Au stock solutions were prepared in 1% DMSO in the respected medium, ensuring that cell viability was not inhibited.
(§2) The cytotoxicity of compounds was determined using an MTT colorimetric test. The cells were harvested from culture flasks by trypsinization and seeded into Cellstar 96 -well microculture plates (Greiner Bio -One) at the seeding density of 6000 cells per well (6 × 10^4 cells/mL). After
(§3) the cells were allowed to resume exponential growth for 16 h, they were exposed to drugs at
(§4) different concentrations in media for 72 h. The drugs were diluted in a complete medium at the desired concentration added to each well (100 μL) and serially diluted in other wells. After exposure for 72 h, the media was replaced with MTT in media (5 mg/mL, 100 μL/well) and
(§5) incubated for an additional 50 min. Subsequently, the medium was aspirated, and the purple formazan crystals formed in viable cells were dissolved in DMSO (100 μL/well). Optical densities were measured at 570 nm using a BioTek Synergy H1 microplate and MultiskanTM SkyHigh plate readers. The quantity of viable cells was expressed in terms of treated/control (T/C) values in comparison to untreated control cells, and 50% inhibitory concentrations (IC 50) were calculated from concentration-effect curves by interpolation. An evaluation was based on means from at least three independent experiments, each comprising three replicat es per
(§6) DMSO had not impact on the cell viability at the concentrations used.

[2] = test system: human malignant mesothelioma cell line JU77; test: MTT cytotoxicity assay, 72 h, JU77; format: cell-based; details: exposure time 72 h
[3] = test system: human malignant mesothelioma cell line LO68; test: MTT cytotoxicity assay, 72 h, LO68; format: cell-based; details: exposure time 72 h
Description: as §1, §2, §3, §4, §5, §6

[4] = test system: patient-derived VMC23 cell line (epithelioid MPM); test: MTT cytotoxicity assay, 72 h, VMC23; format: cell-based, human; details: exposure time 72 h
[5] = test system: patient-derived Meso84 cell line (sarcomatoid MPM); test: MTT cytotoxicity assay, 72 h, Meso84; format: cell-based, human; details: exposure time 72 h
Description: as §1, §2, §3, §4, §5, §6

[6] = test system: patient-derived Meso92 cell line (biphasic MPM); test: MTT cytotoxicity assay, 72 h, Meso92; format: cell-based, human; details: exposure time 72 h
Description: Cell lines and culture conditions
Mouse malignant mesothelioma cancer cell line AB12, human nonmalignant mesothelioma cancer cell line Met5A (mesothelial cells), mouse macrophage cell line J774 and human monocytic cell line THP-1 were obtained from American Type Culture Collection (ATCC) (Rockville, MD, USA). Human malignant mesothelioma cell lines VMC23 (epithelial), Meso82 (sarcomatous), Meso92 (biphasic), were kindly provided by Prof. Walter Berger (Medical University of Vienna). All cells except for J774 were cultured in RPMI and J774 cells were cultured in DMEM. Both types of media were supplemented with 10% FBS and 1% penicillin-streptomycin (10,000 U/mL). Cells were grown in tissue culture flasks (75 cm2 and 25 cm2, SPL Life Sciences Co., Ltd., Korea). All cell lines were grown at 37 °C in a humidified atmosphere of 95% air and 5% CO 2 and passaged when they reached 80–90% confluency. All Au stock solutions were prepared in 1% DMSO in the respected medium, ensuring that cell viability was not inhibited. The Au concentration in the stock solutions was confirmed through inductively coupled plasma optical emission spectrometry. The stock solution of pemetrexed (10 mM) was prepared in Milli -Q water.
Inhibition of c ell viability assay
as §2, §3, §4, §5

[7] = test system: human nonmalignant mesothelioma cell line Met5A; test: MTT cytotoxicity assay, 72 h, Met5A; format: cell-based; details: exposure time 72 h
[8] = Aqueous stability by RP-HPLC in 1:1 DMSO:H2O over 72 h; format: physicochemical; details: room temperature
Description: The aqueous stability of the Au(III)–DTC complexes was assessed by monitoring their RP-HPLC profiles in a 1:1 DMSO:H2O mixture at room temperature over a 3-day period (Supplementary Figures 112–146).
Determination of the purity of cyclometalated Au( III) complexes was performed using analytical HPLC on a Shimadzu Prominence System equipped with a DGU -20A3 Degasser, two LC-20AD Liquid Chromatography Pump, a SPD-20A UV/Vis Detector and a Shim Pack GVP-ODS 2.0 mm 18 column ([…], 120Å, 250 mm × 4.60 mm i.d.). The analysis was conducted at r.t. with a flow rate of 1.0 mL/min and detection at 254 and 280 nm. Mobile phase A was H2O + 0.1% Trifluoroacetic acid (TFA) while mobile phase B is ACN + 0.1% TFA. The gradient program parameters were as follows: mobil e phase B was increased from 30 to 95% over 30 min. 95% mobile phase B was maintained for 10 min, 95 to 30% over 5 min, and finally returned to 30% for 10 min for the next analysis. LogP values of the complexes were calculated based on the HPLC retention times derived from the calibration standard curve. The calibration standard curve was established using 2-butanone, phenylacetonitrile, anisole, ethyl benzoate, benzophenone, diphenyl ether and triphenylamine. To conduct an aqueous stability study, the HPLC profiles of the sample stock solutions were diluted to a 1:1 ratio of DMSO to […]
water. […]

SMILES | IC50 [1] [µM] | IC50 [2] [µM] | IC50 [3] [µM] | IC50 [4] [µM] | IC50 [5] [µM] | IC50 [6] [µM] | IC50 [7] [µM] | hydrolysis over the 72-h period [8] | minor RP-HPLC peak, share of the total area after 24 h [8] [%] | minor RP-HPLC peak, share of the total area after 72 h [8]
COC1c2cccc[c]2[Au-]2([S]C(=[N+](C)C)[S]2)[n+]2ccccc21.F[P-](F)(F)(F)(F)F (racemic) [4A] | 0.29 ± 0.04 | 1.4 ± 0.2 | 1.3 ± 0.3 | 4.7 ± 0.7 | 0.19 ± 0.03 | 0.16 ± 0.03 | 0.72 ± 0.21 | – | – | –
CC[N+](CC)=C1[S][Au-]2([S]1)[c]1ccccc1C(OC)c1cccc[n+]12.F[P-](F)(F)(F)(F)F (racemic) [4B] | 0.33 ± 0.1 | 4.8 ± 0.7 | 2.9 ± 0.8 | 7.3 ± 1.8 | 1.7 ± 0.5 | 6.3 ± 1 | 0.43 ± 0.13 | – | – | –
CC[N+](=C1[S][Au-]2([S]1)[c]1ccccc1C(OC)c1cccc[n+]12)c1ccccc1.F[P-](F)(F)(F)(F)F (racemic) [4E] | 1.9 ± 0.4 | 3.2 ± 0.3 | 4.5 ± 0.5 | 4.3 ± 0.8 | 2.3 ± 0.6 | 5.3 ± 0.2 | 1.4 ± 0.3 | less than 10% | 5 | 7%
COC1c2cccc[c]2[Au-]2([S]C(=[N+]3CCCC3)[S]2)[n+]2ccccc21.F[P-](F)(F)(F)(F)F (racemic) [4F] | 0.32 ± 0.05 | 3.3 ± 0.8 | 1.4 ± 0.2 | 2.9 ± 0.3 | 0.34 ± 0.1 | 1.7 ± 0.5 | 0.74 ± 0.09 | – | – | –
COC1c2cccc[c]2[Au-]2([S]C(=[N+]3CCCCCC3)[S]2)[n+]2ccccc21.F[P-](F)(F)(F)(F)F (racemic) [4G] | 0.23 ± 0.06 | 2.4 ± 0.7 | 1.6 ± 0.2 | 3.5 ± 0.7 | 1.8 ± 0.4 | 4.8 ± 0.5 | 2 ± 0.3 | – | – | –
C[N+](C)=C1[S][Au-]2([S]1)[c]1ccccc1-c1cccc[n+]12.F[P-](F)(F)(F)(F)F (stereo not shown) [1A] | 0.088 ± 0.002 | 1.1 ± 0.3 | 1 ± 0.3 | 0.63 ± 0.15 | 1.3 ± 0.3 | 0.19 ± 0.04 | 0.31 ± 0.07 | – | – | –
CC[N+](CC)=C1[S][Au-]2([S]1)[c]1ccccc1-c1cccc[n+]12.F[P-](F)(F)(F)(F)F (stereo not shown) [1B] | 0.19 ± 0.02 | 0.89 ± 0.13 | 0.55 ± 0.16 | 1.6 ± 0.3 | 0.085 ± 0.007 | 0.69 ± 0.21 | 0.53 ± 0.07 | – | – | –
F[P-](F)(F)(F)(F)F.c1ccc(C[N+](Cc2ccccc2)=C2[S][Au-]3([S]2)[c]2ccccc2-c2cccc[n+]23)cc1 (stereo not shown) [1D] | 1.9 ± 0.2 | 0.76 ± 0.1 | 1.5 ± 0.4 | 1.4 ± 0.2 | 1.4 ± 0.1 | 1.4 ± 0.3 | 1.3 ± 0.3 | – | – | –
CC[N+](=C1[S][Au-]2([S]1)[c]1ccccc1-c1cccc[n+]12)c1ccccc1.F[P-](F)(F)(F)(F)F (stereo not shown) [1E] | 0.84 ± 0.2 | 0.85 ± 0.1 | 2.3 ± 0.3 | 1.3 ± 0.2 | 1.2 ± 0.1 | 2 ± 0.3 | 0.69 ± 0.13 | – | – | –
F[P-](F)(F)(F)(F)F.c1cc[c]2c(c1)-c1cccc[n+]1[Au-]21[S]C(=[N+]2CCCC2)[S]1 (stereo not shown) [1F] | 0.2 ± 0.06 | 1.5 ± 0.1 | 1.7 ± 0.3 | 0.93 ± 0.28 | 0.19 ± 0.04 | 0.22 ± 0.06 | 0.18 ± 0.05 | – | – | –
C[N+](C)=C1[S][Au-]2([S]1)[c]1ccccc1Cc1cccc[n+]12.F[P-](F)(F)(F)(F)F (stereo not shown) [2A] | 0.17 ± 0.02 | 2.8 ± 0.2 | 1.2 | 8.4 ± 1 | 0.22 ± 0.06 | 0.26 ± 0.04 | 0.43 ± 0.08 | – | – | –
CC[N+](CC)=C1[S][Au-]2([S]1)[c]1ccccc1Cc1cccc[n+]12.F[P-](F)(F)(F)(F)F (stereo not shown) [2B] | 0.3 ± 0.06 | 3 ± 0.4 | 2.2 ± 0.4 | 6.6 ± 1.7 | 0.42 ± 0.12 | 6.2 ± 1.7 | 0.53 ± 0.08 | – | – | –
CC[N+](=C1[S][Au-]2([S]1)[c]1ccccc1Cc1cccc[n+]12)c1ccccc1.F[P-](F)(F)(F)(F)F (stereo not shown) [2E] | 2.7 ± 0.6 | 1.6 ± 0.2 | 2.3 ± 0.1 | 2 ± 0.6 | 1.6 ± 0.4 | 1.6 ± 0.2 | 3 ± 0.6 | less than 10% | 4 | remained unchanged
F[P-](F)(F)(F)(F)F.c1cc[c]2c(c1)Cc1cccc[n+]1[Au-]21[S]C(=[N+]2CCCC2)[S]1 (stereo not shown) [2F] | 0.29 ± 0.04 | 1.1 ± 0.1 | 0.72 ± 0.12 | 0.97 ± 0.26 | 0.56 ± 0.1 | 1 ± 0.3 | 0.73 ± 0.12 | less than 10% | 5 | 9%
C[N+](C)=C1[S][Au-]2([S]1)[c]1ccccc1C(=O)c1cccc[n+]12.F[P-](F)(F)(F)(F)F (stereo not shown) [3A] | 0.14 ± 0.04 | 1.9 ± 0.5 | 0.99 ± 0.19 | 0.64 ± 0.06 | 1.2 ± 0.2 | 0.53 ± 0.11 | 0.44 ± 0.13 | – | – | –
CC[N+](CC)=C1[S][Au-]2([S]1)[c]1ccccc1C(=O)c1cccc[n+]12.F[P-](F)(F)(F)(F)F (stereo not shown) [3B] | 0.22 ± 0.01 | 1.2 | 0.93 ± 0.18 | 7.5 ± 1.4 | 1.4 ± 0.3 | 1.1 ± 0.3 | 1.4 ± 0.1 | – | – | –
F[P-](F)(F)(F)(F)F.O=C1c2cccc[c]2[Au-]2([S]C(=[N+]3CCCCCC3)[S]2)[n+]2ccccc21 (stereo not shown) [3G] | 0.35 ± 0.07 | 1.1 ± 0.2 | 1.2 ± 0.1 | 1.4 ± 0.2 | 1.8 ± 0.3 | 1.8 ± 0.2 | 1.5 ± 0.2 | – | – | –
F[P-](F)(F)(F)(F)F.c1ccc(C[N+](Cc2ccccc2)=C2[S][Au-]3([S]2)[c]2ccccc2Nc2cccc[n+]23)cc1 (stereo not shown) [5D] | 1.1 | 0.52 ± 0.08 | 0.95 ± 0.13 | 1.3 ± 0.3 | 1.1 ± 0.3 | 1.1 ± 0.2 | 1 ± 0.2 | – | – | –
CC[N+](=C1[S][Au-]2([S]1)[c]1ccccc1Nc1cccc[n+]12)c1ccccc1.F[P-](F)(F)(F)(F)F (stereo not shown) [5E] | 0.18 ± 0.01 | 0.44 ± 0.13 | 0.76 ± 0.18 | 0.34 ± 0.04 | 0.51 ± 0.1 | 0.4 ± 0.05 | 0.28 ± 0.08 | – | – | –
